Measurements published in article PMC9378673 (Nature Communications, 2022).
Where “and” joins values, the source holds several entries; their conditions need not be identical. Equal values may be shown once. Where a name gives a salt, the structure may show the parent alone. Read-outs that look alike come from different tables or passages of the source. Each block holds one compound with its values, some of them ahead of it.

Key:
IDH1 S280F = molecular target: T1, IDH1 S280F (Homo sapiens, UniProt O75874, S280F); experiment: Steady-state kinetics, spectrophotometric NADPH absorption assay; format: biochemical
T1 construct: made in house; host or cells: E. coli BL21(DE3)plysS
Procedure: (§1) This assay was used to study steady-state kinetics and inhibition of reactions catalysed by IDH1 variants. The assay buffer was 100 mM Tris, 10 mM MgCl2, 0.2 mM dithiothreitol (DTT), 0.005%(v/v) Tween 20, and 0.1 mg mL^−1 bovine serum albumin (BSA) (pH 8.0). For inhibition assays, IDH1 variants were incubated with an inhibitor for 12 min before the reaction was initiated by substrate addition. The standard error was derived from curve fitting using GraphPad Prism v9. See figure legends for details on specific kinetic assays (Figs. 1–3; Supplementary Fig. 5; Supplementary Table 1). […]
(§2) spectrophotometric NADPH absorption assay. Conditions: 100 mM Tris, 10 mM MgCl2, 0.2 mM DTT, 0.005 %(v/v) Tween 20, and 0.1 mg/mL bovine serum albumin (BSA), pH 8.0. […] (a) Michaelis Menten […]
(§3) parameters for the oxidative decarboxylation of isocitrate. Errors: standard error of the mean (n = 3). (b) Michaelis Menten parameters for the reduction of 2-OG to 2-HG. Errors: standard error of the mean (n = 3).

IDH1 wt = molecular target: T2, IDH1 wt (Homo sapiens, UniProt O75874); experiment: as above; format: biochemical
T2 construct: made in house; host or cells: E. coli BL21(DE3)plysS
Procedure: as §1, §2, §3

[1] = tested on: LN18 cells containing an empty vector (control, no IDH1); experiment: 2-HG levels in cells by anion-exchange chromatography-MS; format: cell-based, human; design: unit not given here
[2] = reduction of 2-OG to 2-HG; […] enzyme; read-out: KM IDH1 S280F
[3] = oxidative decarboxylation of isocitrate; 1 nM enzyme; read-out: KM IDH1 S280F
[4] = oxidative decarboxylation of isocitrate; 1 nM enzyme; varied substrate = label
[5] = oxidative decarboxylation of isocitrate; 1 nM enzyme; read-out: KM IDH1 wt
[6] = 5 µM inhibitor, 24 h, replicates

T2 sequence (O75874 whole entry): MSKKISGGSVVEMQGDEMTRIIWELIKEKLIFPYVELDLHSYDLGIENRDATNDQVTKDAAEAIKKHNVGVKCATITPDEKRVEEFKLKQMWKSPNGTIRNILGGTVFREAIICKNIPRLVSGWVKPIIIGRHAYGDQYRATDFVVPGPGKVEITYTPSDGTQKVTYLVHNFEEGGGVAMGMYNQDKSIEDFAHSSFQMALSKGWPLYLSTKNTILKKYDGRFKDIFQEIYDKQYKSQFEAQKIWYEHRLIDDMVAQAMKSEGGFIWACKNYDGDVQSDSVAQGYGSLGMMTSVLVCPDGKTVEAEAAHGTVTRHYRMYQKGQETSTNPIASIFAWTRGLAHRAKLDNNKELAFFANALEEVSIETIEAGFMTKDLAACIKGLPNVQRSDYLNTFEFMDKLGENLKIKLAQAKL
T1 sequence (O75874 whole entry S280F): as the sequence (O75874 whole entry) above, with S280F counted along it

SMILES: NC(=O)C1=CN([C@@H]2O[C@H](COP(=O)(O)OP(=O)(O)OC[C@H]3O[C@@H](n4cnc5c(N)ncnc54)[C@H](OP(=O)(O)O)[C@@H]3O)[C@@H](O)[C@H]2O)C=CC1 [NADPH]
Km (IDH1 S280F; [2]): 3 ± 0.3 µM
Km (IDH1 wt; reduction of 2-OG to 2-HG; […] enzyme; read-out: KM IDH1 wt): 7 ± 2 µM

Km (IDH1 S280F; [3]): 24 ± 3 µM
kcat IDH1 S280F (IDH1 S280F; [4]): 33 ± 1 s⁻¹
Decrease of KM for IDH1 S280F compared to IDH1 wt (IDH1 S280F; reduction of 2-OG to 2-HG): 100 fold
Km (IDH1 S280F; [2]): 15 ± 4 µM
Km (IDH1 wt; [5]): 18 ± 2 µM
kcat IDH1 wt (IDH1 wt; [4]): 37 ± 1 s⁻¹
SMILES: [Cl-].[Cl-].[Mg+2] [MgCl2]

SMILES: CC(Nc1nccc(N2C(=O)OCC2C(C)C)n1)c1ccc(CN2CCC(F)(F)CC2)cc1 (stereo not drawn) [IDH224]
2-HG levels, control (empty vector) LN18 cells [1]: 89318.1 and 81458.8 and 60558.2 and 69273.4

SMILES: COc1c(C)cc(NC(=O)c2nn(Cc3ccc(F)cc3)c3c2CN(C(=O)c2ccc[nH]2)C[C@]3(C)C(N)=O)cc1C [GSK864]
2-HG levels, control (empty vector) LN18 cells [1, 6]: 43585.6 and 50898.8 and 60357.4 and 48169.7

SMILES: N#Cc1ccnc(N2C(=O)CC[C@H]2C(=O)N(c2cncc(F)c2)[C@H](C(=O)NC2CC(F)(F)C2)c2ccccc2Cl)c1 [ivosidenib]
2-HG levels, control (empty vector) LN18 cells ([1]; 5 µM inhibitor, 24 h, replicates, listed as AG120): 57883 and 75917.7 and 85802.8 and 47477.2

SMILES: C[C@H](Nc1ccc(C#N)n(C)c1=O)c1cc2cc(Cl)ccc2[nH]c1=O [FT-2102]
2-HG levels, control (empty vector) LN18 cells [1, 6]: 52804.5 and 64927 and 75933.5 and 34018.1

Km (IDH1 S280F; [3]): 7.4 ± 0.7 µM
kcat IDH1 S280F (IDH1 S280F; [4]): 31.3 ± 0.6 s⁻¹
Km (IDH1 wt; [5]): 10.1 ± 0.7 µM
kcat IDH1 wt (IDH1 wt; [4]): 43.2 ± 0.7 s⁻¹
SMILES: NC(=O)c1ccc[n+]([C@@H]2O[C@H](COP(=O)([O-])OP(=O)(O)OC[C@H]3O[C@@H](n4cnc5c(N)ncnc54)[C@H](OP(=O)(O)O)[C@@H]3O)[C@@H](O)[C@H]2O)c1 [NADP+]

SMILES: O=C(O)CC(C(=O)O)C(O)C(=O)O (racemic) [DL-Isocitrate, DL-isocitric acid trisodium salt]
Km (IDH1 S280F; [3]): 12 ± 1 µM
Km (IDH1 wt; [5]): 31 ± 3 µM

Km (IDH1 S280F; read-out: KM IDH1 S280F; reduction of 2-OG to 2-HG; […] enzyme): 123 ± 4 µM
Km (IDH1 wt; read-out: KM IDH1 wt; reduction of 2-OG to 2-HG; […] enzyme): 792 ± 103 µM
SMILES: O=C(O)CCC(=O)C(=O)O [2-OG, 2-oxoglutarate]

SMILES: Cc1cn(C(=O)c2c(-c3c(Cl)cc(Cl)cc3Cl)noc2C(C)(C)F)c2cccc(/C=C/C(=O)O)c12 [DS-1001B]
2-HG levels, control (empty vector) LN18 cells [1, 6]: 51141.4 and 46980.7 and 53466.4 and 38288.1
